Reference: US12036196B2, “Compositions and methods for the sustained release of beta-alanine” (Natural Alternatives International, Inc., priority 2005, dated 2024)

Legend:
muscle [1] = details: administering to an individual
From the text: The dosing schedule that has been preferred for such administration (i.e., 8 times daily), however, leads to compliance issues and problems with paraesthesia. Thus, there is a need for improved supplements containing free beta-alanine or a biological source thereof in a sustained release formulation to increase compliance and decrease paraesthesia events.
During sustained intensive exercise or exercise sustained under conditions of local hypoxia, the accumulation of hydronium ions formed during glycolysis and the accumulation of lactate due to anaerobic metabolism can severely reduce the intracellular pH. The reduced pH can compromise the function of the creatine-phosphorylcreatine system. The decline in intracellular pH also can affect other functions within the cells such as the function of the contractile proteins in muscle fibers.

[2] = Paraesthesia symptoms after ingesting edible gel or beta-alanine dissolved in water (Example 1); type: in vivo, human; details: 2 g beta-alanine ingested; following 20 minutes
Experimental: To prepare an edible gel containing free beta-alanine the contents of two packets of commercially available strawberry flavored gelatin gel were dissolved in 200 ml of boiling water. The contents were stirred continuously until the gel was completely dissolved. The gel was further fortified with the addition of a sachet of gelatin capsules. To this was added 80 g free beta-alanine (in a final volume of approximately 300 ml). The concentrated gel solution was poured into a 12×12 cm flat mould to a depth of approximately 2 cm and allowed to set to a stiff gel at 4° C. One square piece of gel (approximately 2×2×2 cm in size) contained approximately 2 g of beta-alanine.
In contrast, symptoms of paraesthesia were detected in subjects that ingested 2 g free beta-alanine dissolved in water. Thus the sustained release of free beta-alanine mitigates the symptoms of paraesthesia that are felt when equivalent amounts are administered in a single bolus dose.

[3] = Paraesthesia symptoms, drink versus delayed release capsules (Example 3); type: in vivo, human; details: 1.75 g beta-alanine; two subjects
From the text: Two subjects were given 1.75 g beta-alanine dissolved in water (formulated as a drink) or 5 capsules, each containing 0.35 g beta-alanine in a delayed release formulation.

muscle [4] = details: following administration (supplementation); previous work; cited from earlier work
[5] = bolus single dose of 2-6 grams

Structure (SMILES): NCCC(=O)O [beta-alanine]
- muscle beta-alanylhistidine peptide levels (muscle [1]): elevated
- total work capacity of the muscle (muscle [1]): increased
- symptoms of paraesthesia [2]: detected
- symptoms of paraesthesia [3]: reported symptoms of paraesthesia affecting the face, scalp, neck, arms, hands and buttocks
- carnosine in muscle (muscle [4]): significantly increased
- paraesthesia [5]: results in paraesthesia
